{
  "source": "ChEMBL document CHEMBL1138336",
  "about": "“Design and synthesis of novel and potent amide linked PPARgamma/delta dual agonists” (Bioorg Med Chem Lett, 2007)",
  "key": {"[1]": {"biological_target": "T1, Peroxisome proliferator-activated receptor alpha (Homo sapiens, UniProt Q07869)", "T1 sequence (Q07869 whole entry)": "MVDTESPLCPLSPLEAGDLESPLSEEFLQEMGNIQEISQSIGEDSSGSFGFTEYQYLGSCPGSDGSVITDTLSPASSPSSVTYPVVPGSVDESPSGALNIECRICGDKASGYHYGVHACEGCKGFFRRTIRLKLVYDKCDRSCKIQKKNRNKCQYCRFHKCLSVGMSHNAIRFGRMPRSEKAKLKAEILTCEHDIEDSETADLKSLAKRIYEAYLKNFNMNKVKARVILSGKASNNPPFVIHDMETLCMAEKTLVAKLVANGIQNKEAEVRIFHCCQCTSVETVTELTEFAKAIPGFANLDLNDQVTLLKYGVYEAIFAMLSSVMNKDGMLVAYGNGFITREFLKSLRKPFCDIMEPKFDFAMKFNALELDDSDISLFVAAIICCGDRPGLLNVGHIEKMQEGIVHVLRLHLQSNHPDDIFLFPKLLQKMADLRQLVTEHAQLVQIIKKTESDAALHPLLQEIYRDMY"}, "[2]": {"biological_target": "T2, Peroxisome proliferator-activated receptor delta (Homo sapiens, UniProt Q03181)", "T2 sequence (Q03181 whole entry)": "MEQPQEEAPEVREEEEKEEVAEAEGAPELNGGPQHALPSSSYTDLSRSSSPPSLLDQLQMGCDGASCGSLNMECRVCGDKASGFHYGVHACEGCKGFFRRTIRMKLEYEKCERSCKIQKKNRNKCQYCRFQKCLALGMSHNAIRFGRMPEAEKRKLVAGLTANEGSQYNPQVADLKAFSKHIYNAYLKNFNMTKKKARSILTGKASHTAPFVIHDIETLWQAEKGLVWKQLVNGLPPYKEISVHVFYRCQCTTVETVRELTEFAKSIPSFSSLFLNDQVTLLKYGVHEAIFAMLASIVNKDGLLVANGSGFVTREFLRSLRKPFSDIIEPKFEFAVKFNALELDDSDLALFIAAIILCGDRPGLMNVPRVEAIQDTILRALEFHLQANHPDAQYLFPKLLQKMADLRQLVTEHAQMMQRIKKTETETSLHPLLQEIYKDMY"}, "[3]": {"biological_target": "T1, Peroxisome proliferator-activated receptor alpha", "remark": "listed apart in the source"}, "[4]": {"biological_target": "T2, Peroxisome proliferator-activated receptor delta", "remark": "listed apart in the source"}, "Rattus norvegicus": {"species": "Rattus norvegicus", "test": "animal or person", "assay_type": "functional", "details": "ZDF, po, 168 h"}},
  "data": [
    {"smiles": "Cc1cc(Oc2cccc(CNC(=O)c3ccc(C(F)(F)F)cc3C)c2)ccc1CCC(=O)O", "values": [
      {"measurement": "IC50", "setting": "[1]", "value": "> 10000", "unit": "nM"},
      {"measurement": "IC50", "setting": "[2]", "value": 5, "unit": "nM"},
      {"measurement": "EC50", "setting": "[3]", "value": 2890, "unit": "nM"},
      {"measurement": "EC50", "setting": "[4]", "value": 33, "unit": "nM"}
    ]},
    {"smiles": "Cc1cc(Oc2cccc(CNC(=O)c3c(C)c4cc(Cl)ccc4n3C)c2)ccc1CCC(=O)O", "values": [
      {"measurement": "IC50", "setting": "[1]", "value": "> 10000", "unit": "nM"},
      {"measurement": "IC50", "setting": "[2]", "value": 3, "unit": "nM"},
      {"measurement": "EC50", "setting": "[3]", "value": 2650, "unit": "nM"},
      {"measurement": "EC50", "setting": "[4]", "value": 4, "unit": "nM"}
    ]},
    {"smiles": "CCc1cc(Oc2cc(F)cc([C@@H](C)NC(=O)c3c(C)c4cc(Cl)ccc4n3C)c2)ccc1CCC(=O)O", "values": [
      {"measurement": "ED50", "setting": "Rattus norvegicus", "value": 0.82, "unit": "mg/kg"},
      {"measurement": "IC50", "setting": "[1]", "value": 10300, "unit": "nM"},
      {"measurement": "EC50", "setting": "[3]", "value": 2820, "unit": "nM"}
    ]},
    {"smiles": "Cc1cc(Oc2cccc(CNC(=O)c3cc4cc(Cl)ccc4n3C)c2)ccc1CCC(=O)O", "values": [
      {"measurement": "IC50", "setting": "[1]", "value": "> 10000", "unit": "nM"},
      {"measurement": "IC50", "setting": "[2]", "value": 3, "unit": "nM"},
      {"measurement": "EC50", "setting": "[3]", "value": 2740, "unit": "nM"},
      {"measurement": "EC50", "setting": "[4]", "value": 87, "unit": "nM"}
    ]},
    {"smiles": "CCc1cc(Oc2cc(F)cc([C@@H](C)NC(=O)c3sc4ccc(Cl)cc4c3C)c2)ccc1CCC(=O)O", "values": [
      {"measurement": "IC50", "setting": "[1]", "value": 9340, "unit": "nM"}
    ]}
  ]
}
